Experimental data: patent US20020086835A1, “Use of adenosine deaminase inhibitors to treat systemic inflammatory response syndrome” (priority 2000, published 2002)

How the values were obtained:
[1] = human blood; cited from earlier work
[2] = tested on: TNF-α; experiment: Serum TNF-α by ELISA in rats with chronic peritoneal sepsis (200 mg/kg cecal slurry ip); type: in vivo, rat; details: septic rats, versus saline-treated septic group
Procedure: Studies were conducted to determine if manipulation of adenosine-mediated events would result in alterations in the TNF-α response in this model. At the time of sepsis induction, rats were treated in one of four ways. One group received only 0.9% normal saline as a vehicle control (No Rx; n=6). […] The third group received the adenosine deaminase inhibitor, erythro-9-(2-hydroxy-3-nonyl)adenine (EHNA; 1 μmole/kg+1 μmole/kg/hr; iv; n=3). A fourth group received the adenosine receptor antagonist 8-sulfophenyltheophylline (SPT; 400 μg/kg/8 hours; n=5).
Sepsis was induced under pentobarbital anesthesia (50 mg/kg) in each rat by intraperitoneal (ip) injection of 200 mg/kg rat cecal contents mixed as a slurry in 5% dextrose in water (D5W). […] Non-septic controls received an equivalent volume ip injection of D5W. Polyethylene catheters (Intramedic PE-50, Baxter) were inserted into the right internal jugular vein and right carotid artery. The jugular catheter was used for venous access (drug infusions; volume replacement, etc). The carotid catheter was used to obtain arterial blood samples, and to monitor arterial blood pressure and heart rate. The catheters were secured in their respective vessels, tunneled subcutaneously to exit in the interscapular region, and filled with heparinized saline (50 units/ml 0.9% normal saline). Incisions were closed in layers using 3-0 silk. Rats were allowed to recover from anesthetic and provided food and water ad libitum,
Serum and tissue tumor necrosis factor-α (TNF-α) concentrations were determined by enzyme-linked immunosorbant assay. Samples of serum, liver, and spleen were collected, rapidly weighed, and frozen in liquid nitrogen. On the day of assay, tissues are added to labeled tubes containing lysis buffer (volume=10 ml/gram wt. with 1:10 dilution) and kept on ice. The lysis buffer is 20 mM Tris (pH 7.4) containing […] phenylmethylsulfonylflouride (PMSF), […] leupeptin, 0.7 g/ml pepstatin, and 2.0 g/ml aprotinin to inhibit proteases. Samples were immediately homogenized using five 3 see bursts, washing grinding pistol (3×) between samples with phosphate buffered saline. Samples are then centrifuged for 20 min at 2200 RPM, 4° C. The supernatant was removed and used for TNF-α measurements. Briefly, each microplate well contained 50 μl of assay diluent. To each well, 50 μl of standard, control, or serum/homogenate supernatant sample were added and mixed on an orbital plate shaker. Plates were incubated at room temperature for 2 hours. Each well was then aspirated and washed with wash buffer 4 times. After final aspiration of wash buffer, 100 μl of rat TNF-α conjugate was added to each well. Wells were then covered and incubated for 2 hours at room temperature. At the end of the incubation, the aspiration/wash procedure was repeated 4 times, after which 100 μl of stabilized chromogen solution was added to each well. Next, plates were incubated for 45 minutes at room temperature in a dark area. After this final incubation period, 100 μl stopping solution was added to each well. Optical density of each well at […] was determined within 30 minutes using a Biotek Instruments EL312e microtiter plate reader. Concentrations of TNF-α were calculated from the standard curves.
At the time of sepsis induction, rats were treated in one of three ways. One group received only 0.9% normal saline as a vehicle control (VEH, n=6, where n is the number of rats). […] A third group received the adenosine receptor antagonist, 8-sulfophenyltheo-phylline (SPT; 400 μg/kg/8 h; n=5). Serum TNF-α (pg/ml) was determined at 4 and 24 hours after sepsis induction by ELISA.
Male SD rats (350-400 g) were made septic by IP introduction of a 200 mg/kg cecal slurry. […] TNF-α (pg/ml) was determined at 4 and 24 hours after sepsis induction by ELISA.

[3] = molecular target: T1, adenosine deaminase (Homo sapiens, UniProt P00813); details: potency of inhibition of the enzyme
T1 sequence (P00813 1-363): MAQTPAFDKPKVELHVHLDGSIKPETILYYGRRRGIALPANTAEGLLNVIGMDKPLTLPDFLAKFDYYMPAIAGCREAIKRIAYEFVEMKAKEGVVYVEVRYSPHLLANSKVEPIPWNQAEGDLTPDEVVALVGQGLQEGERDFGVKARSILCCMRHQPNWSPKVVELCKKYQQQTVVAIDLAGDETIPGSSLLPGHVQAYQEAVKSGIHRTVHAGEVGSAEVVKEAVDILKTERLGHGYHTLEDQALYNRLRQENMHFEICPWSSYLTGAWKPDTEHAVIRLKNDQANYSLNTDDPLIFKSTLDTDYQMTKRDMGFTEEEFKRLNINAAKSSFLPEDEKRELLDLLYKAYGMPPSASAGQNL

[4] = molecular target: T1, adenosine deaminase; details: read-out: Inhibitory constant for adenosine deaminase; cited from earlier work
[5] = tested on: adenosine deaminase; details: in perfusion medium, in the presence of 5′-amino-5′-deoxyadenosine; cited from earlier work

| Compound | Half life [1] [s] | Effect on serum TNF-α response to sepsis at 4 hours ([2]; 4 hours) | Effect on serum TNF-α response to sepsis at 24 hours ([2]; 24 hours) | Activity relative to pentostatin (times less active) [3] | Ki [4] [nM] | Increase of adenosine release [5] [fold] |
| --- | --- | --- | --- | --- | --- | --- |
| Nc1ncnc2c1ncn2[C@@H]1O[C@H](CO)[C@@H](O)[C@H]1O [Adenosine] | < 1 | – | – | – | – | – |
| CCCCCCC(C(C)O)n1cnc2c(N)ncnc21 (stereo not drawn) [EHNA, erythro-9-(2-hydroxy-3-nonyl)adenine] | – | attenuation of this response | attenuation of this response | one thousand | 1 | 15 |
